Reference: paper PMC2174402 (Environmental Health Perspectives, 2007)
Where “and” joins values, the source holds several entries; their conditions need not be identical. Equal values may be shown once. Read-outs that look alike come from different tables or passages of the source. Marks after values point to notes of the source that are not given here.

Tests used:
[1] = molecular target: T1, human estrogen receptor (ER) (Homo sapiens, UniProt P03372); test: cell-based; assay type: cell-based; settings: for LOEC (lowest effect concentration), ER / MOEC (maximal effect concentration), ER: 24 hr
T1 sequence (P03372 1-595): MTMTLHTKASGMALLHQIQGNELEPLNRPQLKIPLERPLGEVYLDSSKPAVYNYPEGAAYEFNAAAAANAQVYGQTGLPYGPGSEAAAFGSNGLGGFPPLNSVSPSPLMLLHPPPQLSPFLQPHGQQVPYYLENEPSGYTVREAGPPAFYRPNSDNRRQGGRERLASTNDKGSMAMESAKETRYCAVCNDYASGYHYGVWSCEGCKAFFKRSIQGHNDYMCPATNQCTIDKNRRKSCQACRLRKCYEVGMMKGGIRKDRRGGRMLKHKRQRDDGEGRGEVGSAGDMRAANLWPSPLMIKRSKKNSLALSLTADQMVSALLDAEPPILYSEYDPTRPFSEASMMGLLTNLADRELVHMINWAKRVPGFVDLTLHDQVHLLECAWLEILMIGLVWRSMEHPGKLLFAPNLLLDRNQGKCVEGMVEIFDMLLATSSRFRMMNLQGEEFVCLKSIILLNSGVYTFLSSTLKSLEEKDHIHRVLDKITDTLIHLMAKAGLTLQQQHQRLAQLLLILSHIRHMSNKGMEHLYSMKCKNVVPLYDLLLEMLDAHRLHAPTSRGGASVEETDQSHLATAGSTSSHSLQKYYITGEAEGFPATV

[2] = molecular target: T2, human androgen receptor (AR) (Homo sapiens, UniProt P10275); test: cell-based; assay type: cell-based
T2 sequence (P10275 1-920): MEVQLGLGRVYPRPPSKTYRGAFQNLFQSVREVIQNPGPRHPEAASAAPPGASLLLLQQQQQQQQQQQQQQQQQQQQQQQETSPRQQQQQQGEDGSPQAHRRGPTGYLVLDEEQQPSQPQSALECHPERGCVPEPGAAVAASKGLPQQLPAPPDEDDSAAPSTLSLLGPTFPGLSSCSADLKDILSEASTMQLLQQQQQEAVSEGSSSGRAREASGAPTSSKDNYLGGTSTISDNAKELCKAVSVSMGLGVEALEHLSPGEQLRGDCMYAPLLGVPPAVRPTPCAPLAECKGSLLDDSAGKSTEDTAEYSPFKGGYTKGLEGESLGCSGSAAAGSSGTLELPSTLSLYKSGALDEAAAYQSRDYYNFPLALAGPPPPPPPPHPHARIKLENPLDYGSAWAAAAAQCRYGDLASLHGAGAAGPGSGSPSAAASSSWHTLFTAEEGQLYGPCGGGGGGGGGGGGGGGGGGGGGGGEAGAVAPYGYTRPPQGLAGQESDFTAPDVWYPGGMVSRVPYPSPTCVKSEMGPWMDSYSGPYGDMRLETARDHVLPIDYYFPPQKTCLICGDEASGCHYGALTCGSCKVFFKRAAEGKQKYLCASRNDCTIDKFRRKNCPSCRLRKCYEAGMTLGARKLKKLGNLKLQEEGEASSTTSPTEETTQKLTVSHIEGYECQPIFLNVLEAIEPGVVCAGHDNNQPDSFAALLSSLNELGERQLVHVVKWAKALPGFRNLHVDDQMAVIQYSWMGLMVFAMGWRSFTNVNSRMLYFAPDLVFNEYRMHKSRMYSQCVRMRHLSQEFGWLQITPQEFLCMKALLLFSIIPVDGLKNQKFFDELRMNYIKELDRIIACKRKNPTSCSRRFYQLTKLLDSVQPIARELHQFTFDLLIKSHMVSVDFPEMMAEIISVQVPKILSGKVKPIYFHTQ

[3] = molecular target: T3, aromatase (CYP19) (Homo sapiens, UniProt P11511); test: Aromatase activity in JEG-3 choriocarcinoma cells; assay type: cell-based; settings: for LOEC, aromatase (inhibited activity) / MOEC, aromatase (inhibited activity) / concentration (range) of significant aromatase inhibition: 18 hr exposure; for Maximum % (maximum down-regulation / maximum inhibition, MI), aromatase: control 10 nM 4-AD set to 100%, at the MOEC
T3 sequence (P11511 1-503): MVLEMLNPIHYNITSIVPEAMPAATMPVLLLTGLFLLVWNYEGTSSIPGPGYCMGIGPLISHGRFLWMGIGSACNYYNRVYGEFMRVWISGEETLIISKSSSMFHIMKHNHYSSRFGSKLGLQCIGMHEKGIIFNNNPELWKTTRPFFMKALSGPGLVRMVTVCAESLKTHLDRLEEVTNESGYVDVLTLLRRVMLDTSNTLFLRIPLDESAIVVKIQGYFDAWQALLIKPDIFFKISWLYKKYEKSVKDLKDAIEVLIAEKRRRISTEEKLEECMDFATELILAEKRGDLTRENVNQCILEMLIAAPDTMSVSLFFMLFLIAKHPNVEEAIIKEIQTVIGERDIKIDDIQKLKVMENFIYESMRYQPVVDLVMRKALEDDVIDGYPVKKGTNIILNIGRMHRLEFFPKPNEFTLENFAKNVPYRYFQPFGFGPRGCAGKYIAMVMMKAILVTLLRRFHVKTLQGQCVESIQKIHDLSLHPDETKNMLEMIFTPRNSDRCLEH

[4] = system: CHO cells; test: Cytotoxicity in the AR assay; assay type: cell-based, Chinese hamster; settings: for Cytotox (M), AR assay: pSVAR13
[5] = system: Hepa1.12cR cells; test: Cell cytotoxicity / proliferation for the AhR-CALUX assay
[6] = molecular target: aryl hydrocarbon receptor (AhR) (Mus musculus, UniProt P30561); test: AhR-CALUX
[7] = system: MVLN cells
[8] = system: JEG-3 cells; test: Cell cytotoxicity for the aromatase assay; assay type: cell-based, human
[9] = co-exposure with 0.1 nM R1881, CHO cells
[10] = chemical alone, Hepa1.12cR cells

Chain of aryl hydrocarbon receptor (AhR) (P30561 10-805 limits assumed): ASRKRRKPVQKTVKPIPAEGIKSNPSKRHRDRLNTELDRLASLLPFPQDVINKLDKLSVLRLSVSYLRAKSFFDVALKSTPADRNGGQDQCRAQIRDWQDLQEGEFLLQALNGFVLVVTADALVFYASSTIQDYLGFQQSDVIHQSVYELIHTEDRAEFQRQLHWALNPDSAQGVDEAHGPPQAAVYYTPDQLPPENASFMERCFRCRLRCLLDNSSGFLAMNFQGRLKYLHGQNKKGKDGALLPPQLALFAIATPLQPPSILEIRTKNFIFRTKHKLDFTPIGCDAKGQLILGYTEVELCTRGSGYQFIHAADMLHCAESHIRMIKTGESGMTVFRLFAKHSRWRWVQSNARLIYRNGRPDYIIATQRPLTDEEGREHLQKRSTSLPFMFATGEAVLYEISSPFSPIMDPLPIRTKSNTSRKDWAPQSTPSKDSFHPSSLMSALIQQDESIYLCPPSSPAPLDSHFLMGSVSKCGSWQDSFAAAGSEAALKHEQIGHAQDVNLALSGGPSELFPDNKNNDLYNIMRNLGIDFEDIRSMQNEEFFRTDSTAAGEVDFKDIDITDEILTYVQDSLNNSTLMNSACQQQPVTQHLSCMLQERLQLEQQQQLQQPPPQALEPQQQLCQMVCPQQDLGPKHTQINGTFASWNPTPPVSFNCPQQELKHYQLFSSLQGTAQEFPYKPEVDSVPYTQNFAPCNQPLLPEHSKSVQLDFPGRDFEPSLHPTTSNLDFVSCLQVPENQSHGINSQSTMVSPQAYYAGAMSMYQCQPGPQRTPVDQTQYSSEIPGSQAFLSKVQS
Chain of aryl hydrocarbon receptor (AhR) (P53762 whole entry partner): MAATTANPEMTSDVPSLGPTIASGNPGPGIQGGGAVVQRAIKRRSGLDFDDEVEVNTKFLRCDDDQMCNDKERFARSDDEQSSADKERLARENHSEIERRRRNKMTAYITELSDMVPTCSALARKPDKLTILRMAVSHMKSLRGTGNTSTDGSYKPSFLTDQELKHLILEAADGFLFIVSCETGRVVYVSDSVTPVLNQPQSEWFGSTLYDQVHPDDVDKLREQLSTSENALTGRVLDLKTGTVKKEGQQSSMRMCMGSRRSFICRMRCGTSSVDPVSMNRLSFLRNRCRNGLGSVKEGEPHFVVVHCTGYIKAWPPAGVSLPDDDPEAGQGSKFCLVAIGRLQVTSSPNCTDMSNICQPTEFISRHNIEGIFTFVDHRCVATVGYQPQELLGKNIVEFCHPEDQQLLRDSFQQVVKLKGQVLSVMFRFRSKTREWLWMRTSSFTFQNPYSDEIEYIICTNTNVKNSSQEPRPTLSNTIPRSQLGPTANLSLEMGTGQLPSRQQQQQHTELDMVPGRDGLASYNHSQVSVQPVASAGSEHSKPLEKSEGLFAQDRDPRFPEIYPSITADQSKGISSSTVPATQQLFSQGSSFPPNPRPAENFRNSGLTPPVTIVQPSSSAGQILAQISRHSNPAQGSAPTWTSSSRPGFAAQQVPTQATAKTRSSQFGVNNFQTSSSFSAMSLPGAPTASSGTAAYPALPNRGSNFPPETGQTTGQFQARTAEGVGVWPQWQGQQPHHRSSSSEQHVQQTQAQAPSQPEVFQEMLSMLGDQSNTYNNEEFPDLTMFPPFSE

SMILES | LOEC (lowest effect concentration), ER ([1]; chemical alone, MVLN cells) [nM] | MOEC (maximal effect concentration), ER ([1]; chemical alone, MVLN cells) [µM] | LOEC, aromatase (inhibited activity) ([3]; JEG-3 cells) [nM] | MOEC, aromatase (inhibited activity) ([3]; JEG-3 cells) [µM] | concentration (range) of significant aromatase inhibition ([3]; JEG-3 cells) | Maximum % (maximum down-regulation / maximum inhibition, MI), aromatase [3] [%] | concentrations of cytotoxicity, AR assay [4] [µM] | Cytotox (M), AR assay [4] [M] | Cytotox (M), AhR assay [5] | Cytotox (M), ER assay [7] [M] | LOEC, AhR (increased activity) [6, 10] [nM] | other results
CC(C)(c1ccc(O)cc1)c1ccc(O)cc1 [BPA, Bisphenol A] | 100 | 10 | 100000 | 100 | 10^−4 M | 59 | > 40 | > 4e-05 | > 10^−4 M |  |  | response on co-treatment with 25 pM E2 at 50 μM [1]: significant decreased response; concentration range of ER-mediated (estrogenic) response ([1]; chemical alone, MVLN cells): 10^−8 to 5 × 10^−5 M; IC50 [2]: 1000 nM; concentration range of significant antiandrogenic effect ([2]; co-exposure with 0.1 nM R1881): 0.60 to 20 µM; LOEC, AR (inhibited activity) [2, 9]: 600 nM; MOEC, AR (inhibited activity) [2, 9]: 20 µM; Maximum % (maximum down-regulation / maximum inhibition, MI), AR ([2]; control inducer 0.1 nM R1881 set to 100%): 90%; concentration of decreased TCDD-induced AhR activity [6]: 10^−4 M; concentration (range) of decreased AhR activity, alone ([6]; chemical alone): 5 × 10^−5 to 10^−4 M; LOEC, AhR (inhibited activity) ([6]; inhibited activity): 5 × 10^−5 ^d M
CCCCCCCCCc1ccc(O)cc1 [nNP, 4-n-nonylphenol] | 10 | 10 | 1 | 10 | 10^−9–10^−5 M | 71 | > 40 | > 4e-05 |  | 2.5e-05 | 50 | EC50 [1]: 8900 nM; concentration giving further increase of the 25 pM E2-induced activity level [1]: 5 × 10^−6 M; concentration at which cytotoxicity was observed, ER assay [7]: 25 µM; concentration of decreased TCDD-induced AhR activity ([6]; co-treatment with TCDD-EC50 (60 pM)): 10^−4 M
CCCCCCCCc1ccc(O)cc1 [nOP, 4-n-octylphenol] |  |  |  |  |  |  |  | > 2e-05 | > 10^−4 M | 5e-05 |  | Cytotox (M), aromatase assay [8]: 10^−4 M
Clc1cc2c(cc1Cl)Oc1cc(Cl)c(Cl)cc1O2 [TCDD, 2,3,7,8-tetrachlorodibenzo-p-dioxin, reference compound] |  |  |  |  |  |  |  |  |  |  | 0.002 | AhR-CALUX activity relative to solvent control ([6]; 60 pM TCDD alone, 0.1% DMSO set to 1, mean ± SD): 14.84 ± 6.26 and 13.89 ± 7.32; MOEC, AhR (increased activity) [6, 10]: 10 nM; REP (relative potency), AhR ([6]; relative to TCDD): 1
C[C@]12CCC(=O)C(O)=C1CC[C@@H]1[C@@H]2CC[C@]2(C)C(=O)CC[C@@H]12 [4-AOD, 4-androsten-4-ol-3,17-dione, reference compound] |  |  | 1 | 100 |  | 100 |  |  |  |  |  | EC50 [3]: 6 nM; IC50 [3]: 6 nM; EC100 of aromatase inhibitor control ([3]; JEG-3 cells): 10 µM; REP (relative potency), aromatase ([3]; REP-aromatase = LOEC 4-AOD/LOEC test compound): 1
